Like-named read-outs stand apart in the source and are kept apart here.
Legend:
[1] = biological target: T1, human recombinant VHL:ElonginB:ElonginC (VBC) complex (Homo sapiens, UniProt P40337); assay: Circular dichroism of VBC complex; format: binding; conditions: 3 μM in 1% DMSO
T1 construct: made in house

[2] = biological target: T1, human recombinant VHL:ElonginB:ElonginC (VBC) complex; assay: Isothermal titration calorimetry (ITC); format: binding
Experimental: (§1) HEK293 cells were treated with vehicle DMSO (1% for 2 h), 1a (0.3, 1, 3, 6 and 9 μM for 2 h), VH298 (100 μM for 2 h), MG132 (20 μM for 3 h), or FG-4592 (100 μM for 2 h) before lysis. Cell lysates were collected and incubated with VHL antibody overnight at 4° C. The proteins were immunoprecipitated using agarose beads. The levels of hydroxy-HIF-1α co-precipitated with VHL were detected using a hydroxy-HIF-1α antibody, and then visualized using ECL Western Blotting Detection Reagent (GE Healthcare). (B) Cellular thermal shift assays to monitor cellular target engagement of VHL and HIF-1α. HEK293 cell lysates were treated with 1a (3 μM) at room temperature for 30 min and then heated at different temperature ranging from 48° C. to 68° C. for 5 min. The protein samples were collected and detected by Western blotting using either VHL or PHD2 antibodies. (C) Fluorescence-based protein thermal shift assay of VBC in the presence or absence of VH298 (100 μM) and complex 1a (100 μM). (D) ITC titration of complex 1a (300 μM) into recombinant VHL protein (30 μM). ITC experiments were carried in a MicroCal PEAQ-ITC Isothermal Titration Calorimeter (Malvern Panalytical). […] (F) Biolayer interferometry (BLI) kinetic analysis of the interaction between complex 1a and VBC. VBC was surface-immobilized to Ni-NTA biosensors. […] Data are expressed as means±SD (n=3 independent experiments for figures a and b, samples for figures c and e), P values were calculated using a two-sided t-test. *P<0.05, **P<0.01 vs. DMSO group.
(§2) After incubating HEK293 cell lysates with complex 1a followed by heating to set temperatures, VHL and PHD2 levels in the soluble fraction were quantitated by Western blotting.

[3] = biological target: T1, human recombinant VHL:ElonginB:ElonginC (VBC) complex; assay: Competitive fluorescence polarization binding assay
[4] = biological target: T2, His-tagged recombinant VBC protein complex (Homo sapiens, UniProt P40337); assay: Biolayer interferometry (BLI); format: binding; conditions: for Kd: 1:1 interaction, 0.78-12.5 μM
T2 construct: made in house
Experimental: as §1, §2

[5] = tested on: oxygen depletion, PHD inhibition, proteasomal inhibition; assay: Alternative mechanisms of HIF activation (oxygen depletion, PHD inhibition, proteasomal inhibition)
[6] = Stability in solution (1H NMR, UV/Vis); format: physicochemical; conditions: 298 K
Description: Based on the structure of complex 1, a focused library of 14 cyclometalated Rh(III) and Ir(III) complexes containing different CAN or NAN donor ligands were designed and synthesized (1a-1n) (FIG. 1c). This library was enriched in the brpy CAN and dmeophen N^N ligands that were identified in the first round of screening to be favorable substructures for potency.

[7] = tested on: full-thickness skin wounds in high-fat diet-fed, streptozotocin-treated diabetic mice (HFD/STZ); conditions: 1.25 mg/kg i.p. every other day
Experimental: (§3) The db/db and age-matched wide-type (WT) mice were locally administered with vehicle (0.8% w/v Carbopol 974P NF in distilled water, pH 7.0) and 0.25 mg/mL complex 1a (mixed in 0.8% w/v Carbopol 974P NF in distilled water) every other day for 8 days, respectively (FIG. 4a). […] STZ mice were obtained by a single injection of high-dose streptozotocin (150 mg/kg) (Supplementary FIG. 10a). HFD/STZ mice were generated by 8 weeks high-fat diet feeding, followed by low-dose streptozotocin injection for 7 days (40 mg/kg/day) (Supplementary FIG. 11a). 3 days after streptozotocin injection, STZ or HFD/STZ mice with fasting blood glucose levels between 15 and 28 mmol/L were considered as diabetic mice and used in wound healing experiments. STZ and HFD/STZ mice were intraperitoneally injected with either vehicle (PEG 400: distilled water=6:4, v/v) or 1.25 mg/kg complex 1a every other day for 8 days, respectively.
(§4) In the wound healing experiment, two full-thickness skin lesions were excised in interscapular area of each mouse, and the wound area was monitored every other day.
(§5) Male db/db mice were purchased from the Model Animal Research Center of Nanjing University (Nanjing, China). Male C57BL/6J mice were purchased from the animal facility of Faculty of Health Sciences, University of Macau.

[8] = tested on: full-thickness skin wounds in leptin-receptor deficient (db/db) diabetic mice; conditions: 0.25 mg/mL topical every other day
Experimental: as §3, §4, §5

[9] = tested on: full-thickness skin wounds in streptozotocin-induced diabetic mice (STZ); assay: Skin wound model in STZ diabetic mice, intraperitoneal; format: in vivo; conditions: 1.25 mg/kg i.p. every other day
Description: (§6) The mice were maintained for 3 days. […] All experiments complied with all relevant ethical regulations.
(§7) Mice were anesthetized by inhalation of 3% isoflurane.

[10] = tested on: full-thickness skin wounds in WT/NC mice; assay: Skin wound model in normal (WT/NC) mice; format: in vivo
Description: as §6, §7

VHL = VHL (Homo sapiens, UniProt P40337); assay: Cellular thermal shift assay (CETSA) in HEK293 cell lysates, VHL; format: binding; parameters: monitor the target engagement of 1a in HEK293 cell lysates; endogenous in cells; host or cells: HEK293 cell lysate; conditions: 3 μM, 30 min
Experimental: HEK293 cells were treated with vehicle DMSO (1% for 2 h), 1a (0.3, 1, 3, 6 and 9 μM for 2 h), VH298 (100 μM for 2 h), MG132 (20 μM for 3 h), or FG-4592 (100 μM for 2 h) before lysis. Cell lysates were collected and incubated with VHL antibody overnight at 4° C. The proteins were immunoprecipitated using agarose beads. The levels of hydroxy-HIF-1α co-precipitated with VHL were detected using a hydroxy-HIF-1α antibody, and then visualized using ECL Western Blotting Detection Reagent (GE Healthcare). (B) Cellular thermal shift assays to monitor cellular target engagement of VHL and HIF-1α. HEK293 cell lysates were treated with 1a (3 μM) at room temperature for 30 min and then heated at different temperature ranging from 48° C. to 68° C. for 5 min. The protein samples were collected and detected by Western blotting using either VHL or PHD2 antibodies. (C) Fluorescence-based protein thermal shift assay of VBC in the presence or absence of VH298 (100 μM) and complex 1a (100 μM). […] Data are expressed as means±SD (n=3 independent experiments for figures a and b, samples for figures c and e), P values were calculated using a two-sided t-test. *P<0.05, **P<0.01 vs. DMSO group.
After incubating HEK293 cell lysates with complex 1a followed by heating to set temperatures, VHL and PHD2 levels in the soluble fraction were quantitated by Western blotting. […]

Structure (SMILES): COc1cc[n+]2c3c1ccc1c(OC)cc[n+](c13)[Ir-3]213([c]2ccccc2-c2cccc[n+]21)[c]1ccccc1-c1cccc[n+]13.F[P-](F)(F)(F)(F)F [1a]
- Circular dichroism signal of VBC complex [1]: distinct shift of the signal
- ΔG (ITC) [2]: -8.14 kcal/mol
- ΔH (ITC) [2]: -7.85 kcal/mol
- −TΔS (ITC) [2]: -0.29 kcal/mol
- Kd ([2]; 300 μM complex titrated into 30 μM VBC, 25° C.): 1.08 ± 0.2 µM
- IC50 ([3]; 125 nM fluorescent peptide and 450 nM VBC, four-parameter logistic equation): 3.79 µM
- Kd ([3]; displacement of FAM-DEALAHyp-YIPD from VBC): 2.06 µM
- koff (BLI) [4]: 0.0352 s⁻¹
- kon (BLI) [4]: 522 M⁻¹ s⁻¹
- Kd ([4]; read-out: Kd (BLI, kinetic fit)): 6.74 ± 0.19 µM
- Kd ([4]; read-out: Kd (BLI, steady state fit)): 5.8 ± 0.64 µM
- Activation of HIF signaling via oxygen depletion, PHD inhibition and/or proteasomal inhibition [5]: unlikely to activate HIF signaling via oxygen depletion, PHD inhibition, and/or proteasomal inhibition
- Stability in [d6]DMSO/D2O (9:1) solution ([6]; 1H NMR spectroscopy): remarkable stability in a [d6]DMSO/D2O (9:1) solution for at least seven days
- Stability in acetonitrile/H2O (9:1) solution ([6]; UV/Vis spectroscopy): for at least seven days
- Rate of wound closure, HFD/STZ mice, 4 days ([7]; 4 days post-injury): 62%
- Rate of wound closure, HFD/STZ mice, 8 days ([7]; 8 days post-injury): 82%
- Rate of wound closure, db/db mice, 4 days ([8]; 4 days post-injury): about 28%
- Rate of wound closure, db/db mice, 8 days ([8]; 8 days post-injury): ~40%
- Rate of wound closure, STZ mice, 4 days ([9]; 4 days post-injury): 50%
- Rate of wound closure, STZ mice, 8 days ([9]; 8 days post-injury): 76%
- Rate of wound closure, NC mice, 4 days ([10]; NC, 1.25 mg/kg i.p., 4 days): ~65%
- Rate of wound closure, WT mice, 4 days ([10]; WT, 0.25 mg/mL topical, 4 days): about 64%
- Wound closure, WT/NC mice, 8 days ([10]; WT/NC, 8 days): almost complete wound closure
- Shift in the VHL melting curve (CETSA) (VHL): about 6 °C

— patent publication US11958868B2, “Methods of using metal complexes to promote wound healing” (University of Macau, priority 2022, dated 2024)
